The values that follow are results of earlier work, collected in article PMC6625762 (Bioorganic & medicinal chemistry letters, 2019).

In the case of “NMeAla-Tle-(4S)-4-phenoxy-Pro-(R)-tetrahydronaphth-1-yl-amide”, the Kd was 5 nM.

What is called Kd is the free concentration of one partner at which half of the binding sites on the other are occupied at equilibrium, for simple one-to-one binding.
